The record followed here is patent US10428045B2, “Benzazepine compounds, conjugates, and uses thereof” (Silverback Therapeutics, Inc., priority 2017, dated 2019).

Molecules are shown by their SMILES. Counter-ions that a name gives are not always drawn.

The assay concerns Human peripheral blood mononuclear cells (PBMC). Briefly: PBMC screening assay, TNF-α in supernatant. It counts as cell-based. As to conditions: TNF-α in supernatant of human PBMC, 24 hours, ELISA or HTRF. The procedure: Human peripheral blood mononuclear cells (PBMC) were obtained from BenTek, frozen at 25×10^6 cell/mL in 10% DMSO (Sigma) prepared in fetal bovine serum (Gibco) and stored in liquid nitrogen. For culture PBMC were thawed quickly in a 37° C. water bath and diluted into pre-warmed RPMI 1640 (Lonza) supplemented with 10% fetal bovine serum, 2 mM glutamine, 50 μg/mL penicillin, 50 U/mL streptomycin (all from Gibco) and centrifuged for 5 minutes at 500×g. PBMC were suspended into the growth media described above and cultured at a concentration of 1×10^6 cells per mL at 37° C. in a 5% CO2 incubator.
PBMC were thawed, suspended at a concentration of 1×10^6 cell/mL in growth media and 200 μL was aliquoted into each well of a 96-well plate for a total of 0.2×10^6 cells per well. PBMC were incubated for 16-18 hours at 37° C. in a 5% CO2 humidified incubator. The following day PBMC plates were centrifuged at 500×g for 5 minutes and the growth media was removed. 150 μL of twelve concentrations ranging from 1000 to 0.000238 nM of small molecules prepared in growth media were added to PBMC in duplicate and incubated for 24 hours at 37° C. in a 5% CO2 incubator. Prior to supernatant harvest, cells were spun at 500×g for 5 minutes to remove cell debris. TNF-α activity was assessed in the supernatant by ELISA (eBioscience) or HTRF (CisBio) per the manufacturer's instructions. Optical density at 450 nm and 570 nm (ELISA) or luminescence (HTRF) was analyzed using an Envision (Perkin Elmer) plate reader, as shown in Table 5.
A general note: In an ELISA, binding on a coated surface is turned into a signal by an enzyme label.
With `CCCN(CCC)C(=O)C1=Cc2ccc(C(=O)N[C@@H](C)c3ccccc3)cc2N=C(N)C1` [Compound 1.21, (S)-2-amino-N^8-(1-phenylethyl)-N^4,N^4-dipropyl-3H-benzo[b]azepine-4,8-dicarboxamide trifluoroacetate salt], the concentration giving a half-maximal response (EC50) was < 500 nM. Take `CCCN(CCC)C(=O)C1=Cc2ccc(C(=O)Nc3cncc(CNC(=O)[C@@H](N)Cc4ccccc4)c3)cc2N=C(N)C1` [Compound 1.35, (S)-2-amino-N^8-(5-((2-amino-3-phenylpropanamido)methyl)pyridin-3-yl)-N^4,N^4-dipropyl-3H-benzo[b]azepine-4,8-dicarboxamide]: the EC50 was < 500 nM. On to `CCCN(CCC)C(=O)C1=Cc2ccc(C(=O)N[C@H](C)c3ccccc3)cc2N=C(N)C1` [Compound 1.22, (R)-2-amino-N^8-(1-phenylethyl)-N^4,N^4-dipropyl-3H-benzo[b]azepine-4,8-dicarboxamide trifluoroacetate salt], for which the EC50 is < 500 nM. `CCCN(CCC)C(=O)C1=Cc2ccc(C(=O)Nc3ccc4c(c3)NCCC4)cc2N=C(N)C1` [Compound 1.1, 2-amino-N^4,N^4-dipropyl-N^8-(1,2,3,4-tetrahydroquinolin-7-yl)-3H-benzo[b]azepine-4,8-dicarboxamide]: the EC50 is < 500 nM. As for `CCCN(CCC)C(=O)C1=Cc2ccc(C(=O)Nc3cccc(C(C)=O)c3)cc2N=C(N)C1` [Compound 1.2, N^8-(3-acetylphenyl)-2-amino-N^4,N^4-dipropyl-3H-benzo[b]azepine-4,8-dicarboxamide], the EC50 is < 500 nM. On to `CCCN(CCC)C(=O)C1=Cc2ccc(C(=O)Nc3ccc4c(c3)CNCC4)cc2N=C(N)C1` [Compound 1.14, 2-amino-N^4,N^4-dipropyl-N^8-(1,2,3,4-tetrahydro-isoquinolin-7-yl)-3H-benzo[b]azepine-4,8-dicarboxamide trifluoroacetate salt], for which the half-maximal effective concentration (EC50) was < 500 nM. With `CCCN(CCC)C(=O)C1=Cc2ccc(C(=O)Nc3ccc4c(c3)CCCN4)cc2N=C(N)C1` [Compound 1.12, 2-amino-N^4,N^4-dipropyl-N^8-(1,2,3,4-tetrahydroquinolin-6-yl)-3H-benzo[b]azepine-4,8-dicarboxamide trifluoroacetate salt], the EC50 is < 500 nM. As for `CCCN(CCC)C(=O)C1=Cc2ccc(C(=O)NCCNC(=O)OCc3ccccc3)cc2N=C(N)C1` [Compound 1.26, benzyl (2-(2-amino-4-(dipropylcarbamoyl)-3H-benzo[b]azepine-8-carboxamido)ethyl)carbamate trifluoroacetate salt], the half-maximal effective concentration (EC50) was < 500 nM. Turning to `CCCN(CCC)C(=O)C1=Cc2ccc(C(=O)N3CCc4ccccc4C3)cc2N=C(N)C1` [Compound 1.24, 2-amino-N,N-dipropyl-8-(1,2,3,4-tetrahydroisoquinoline-2-carbonyl)-3H-benzo[b]azepine-4-carboxamide trifluoroacetate salt], the EC50 was < 500 nM. In the case of `CCCN(CCC)C(=O)C1=Cc2ccc(C(=O)NC3CCc4ccccc43)cc2N=C(N)C1` (stereo not shown) [Compound 1.23, 2-amino-N^8-(2,3-dihydro-1H-inden-1-yl)-N^4,N^4-dipropyl-3H-benzo[b]azepine-4,8-dicarboxamide trifluoroacetate salt], the concentration for a half-maximal effect (EC50) is < 500 nM. The result for `CCCN(CCC)C(=O)C1=Cc2ccc(C(=O)Nc3ccc4c(c3)CCNC4)cc2N=C(N)C1` [Compound 1.13, 2-amino-N^4,N^4-dipropyl-N^8-(1,2,3,4-tetrahydroisoquinolin-6-yl)-3H-benzo[b]azepine-4,8-dicarboxamide trifluoroacetate salt] reads < 500 nM; that for `CCCN(CCC)C(=O)C1=Cc2ccc(C(=O)Nc3ccc4c(c3)CCN(C(=O)OCc3ccccc3)C4)cc2N=C(N)C1` [Compound 1.29, benzyl 6-(2-amino-4-(dipropylcarbamoyl)-3H-benzo[b]azepine-8-carboxamido)-3,4-dihydroisoquinoline-2(1H)-carboxylate], < 500 nM. Compound `CCCN(CCC)C(=O)C1=Cc2ccc(C(=O)Nc3ccc(N4CCCC(N)C4)nc3)cc2N=C(N)C1` (stereo not shown) [Compound 1.56, 2-amino-N^8-(6-(3-aminopiperidin-1-yl)pyridin-3-yl)-N^4,N^4-dipropyl-3H-benzo[b]azepine-4,8-dicarboxamide] registered an EC50 of 1000 to 3000 nM.

Consider `CCCN(CCC)C(=O)C1=Cc2ccc(C(=O)N[C@H]3C[C@@H]3c3ccccc3)cc2N=C(N)C1` [Compound 1.28, 2-amino-N^8-((1S,2R)-2-phenylcyclopropyl)-N^4,N^4-dipropyl-3H-benzo[b]azepine-4,8-dicarboxamide trifluoroacetate salt], for which the EC50 was < 500 nM. The result for `CCCN(CCC)C(=O)C1=Cc2ccc(C(=O)Nc3cncc(CNC(=O)C4CCc5ccccc5N4)c3)cc2N=C(N)C1` (stereo not shown) [Compound 1.33, 2-amino-N^4,N^4-dipropyl-N^8-(5-((1,2,3,4-tetrahydroquinoline-2-carboxamido)methyl)pyridin-yl)-3H-benzo[b]azepine-4,8-dicarboxamide] reads < 500 nM. As for `CCCN(CCC)C(=O)C1=Cc2ccc(C(=O)Nc3ccc4c(c3)CCCC4=O)cc2N=C(N)C1` [Compound 1.5, 2-amino-N^8-(5-oxo-5,6,7,8-tetrahydronaphthalen-2-yl)-N^4,N^4-dipropyl-3H-benzo[b]azepine-4,8-dicarboxamide trifluoroacetate salt], the EC50 is < 500 nM.

In turn, `CCCN(CCC)C(=O)C1=Cc2ccc(S(=O)(=O)Nc3cccnc3)cc2N=C(N)C1` [Compound 1.63, 2-amino-N,N-dipropyl-8-(N-(pyridin-3-yl)sulfamoyl)-3H-benzo[b]azepine-4-carboxamide] registered an EC50 of 500 to 1000 nM. The figure for `CCCN(CCC)C(=O)C1=Cc2ccc(C(=O)Nc3ccc4c(c3)C(O)CCC4)cc2N=C(N)C1` (stereo not shown) [Compound 1.7, 2-amino-N^8-(8-hydroxy-5,6,7,8-tetrahydronaphthalen-2-yl)-N4,N4-dipropyl-3H-benzo[b]azepine-4,8-dicarboxamide trifluoroacetate salt] is < 500 nM; for `CCCN(CCC)C(=O)C1=Cc2ccc(C(=O)Nc3cncc(CNC(=O)C4Cc5ccccc5CN4)c3)cc2N=C(N)C1` (stereo not shown) [Compound 1.34, 2-amino-N^4,N^4-dipropyl-N^8-(5-((1,2,3,4-tetrahyroisoquinoline-3-carboxamido)-methyl)pyridin-3-yl)-3H-benzo[b]azepine-4,8-dicarboxamide] it is < 500 nM; for `CCCN(CCC)C(=O)C1=Cc2ccc(C(=O)Nc3cncc(CNC(=O)CC(N)c4ccccc4)c3)cc2N=C(N)C1` (stereo not shown) [Compound 1.38, 2-amino-N^8-(5-((3-amino-3-phenyl-propanamido)methyl)-pyridin-3-yl)-N^4,N^4-dipropyl-3H-benzo[b]azepine-4,8-dicarboxamide] it is < 500 nM. The figure for `CCCN(CCC)C(=O)C1=Cc2ccc(C(=O)Nc3ccc4c(c3)C(=O)CCC4)cc2N=C(N)C1` [Compound 1.4, 2-amino-N^8-(8-oxo-5,6,7,8-tetrahydronaphthalen-2-yl)-N^4,N^4-dipropyl-3H-benzo[b]azepine-4,8-dicarboxamide trifluoroacetate salt] is < 500 nM. `CCCN(CCC)C(=O)C1=Cc2ccc(NC(=O)c3cccnc3)cc2N=C(N)C1` [Compound 1.62, 2-amino-8-(nicotinamido)-N,N-dipropyl-3H-benzo[b]azepine-4-carboxamide] displayed an EC50 of 500 to 1000 nM. Consider `CCCN(CCC)C(=O)C1=Cc2ccc(C(=O)NCc3cccnc3)cc2N=C(N)C1` [Compound 1.3, 2-amino-N^4,N^4-dipropyl-N^8-(pyridin-3-ylmethyl)-3H-benzo[b]azepine-4,8-dicarboxamide HCl salt], for which the EC50 is < 500 nM. Turning to `CCCN(CCC)C(=O)C1=Cc2ccc(C(=O)Nc3ccc(C(C)=O)cc3)cc2N=C(N)C1` [Compound 1.25, N^8-(4-acetylphenyl)-2-amino-N^4,N^4-dipropyl-3H-benzo[b]azepine-4,8-dicarboxamide trifluoroacetate salt], the EC50 is < 500 nM.

In turn, `CCCN(CCC)C(=O)C1=Cc2ccc(C(=O)Nc3cncc(CNC(=O)[C@@H](N)C(C)C)c3)cc2N=C(N)C1` [Compound 1.51, (S)-2-amino-N^8-(5-((2-amino-3-methylbutanamido)methyl)pyridin-3-yl)-N^4,N^4-dipropyl-3H-benzo[b]azepine-4,8-dicarboxamide] had an EC50 of 1000 to 3000 nM. The figure for `CCCN(CCC)C(=O)C1=Cc2ccc(C(=O)Nc3cncc(C4CCNC4)c3)cc2N=C(N)C1` (stereo not shown) [Compound 1.58, 2-amino-N^4,N^4-dipropyl-N^8-(5-(pyrrolidin-3-yl)pyridin-3-yl)-3H-benzo[b]azepine-4,8-dicarboxamide] is 500 to 1000 nM; for `CCCN(CCC)C(=O)C1=Cc2ccc(C(=O)Nc3ccc(N4CCC(N)CC4)nc3)cc2N=C(N)C1` [Compound 1.57, 2-amino-N^8-(6-(4-aminopiperidin-1-yl)pyridin-3-yl)-N^4,N^4-dipropyl-3H-benzo[b]azepine-4,8-dicarboxamide tris HCl salt] it is < 500 nM.

`CCCN(CCC)C(=O)C1=Cc2ccc(C(=O)Nc3cncc(CNC(=O)Oc4ccccc4)c3)cc2N=C(N)C1` [Compound 1.37, Phenyl ((5-(2-amino-4-(dipropylcarbamoyl)-3H-benzo[b]azepine-8-carboxamido)pyridin-3-yl)methyl)carbamate]: the EC50 was < 500 nM.

Usually EC50 stands for the midpoint of the concentration-response curve. Lower therefore signals greater potency.
